Literature values, collected in patent publication US6689595B1, “Crystallization and structure determination of Staphylococcus aureus thymidylate kinase” (Pharmacia & Upjohn Company, priority 1999, dated 2004).

Target: E. coli TMK (Escherichia coli, UniProt P0A720)
Settings: from A. Lavie et al. 1998

E. coli TMK, sequence (P0A720 whole entry): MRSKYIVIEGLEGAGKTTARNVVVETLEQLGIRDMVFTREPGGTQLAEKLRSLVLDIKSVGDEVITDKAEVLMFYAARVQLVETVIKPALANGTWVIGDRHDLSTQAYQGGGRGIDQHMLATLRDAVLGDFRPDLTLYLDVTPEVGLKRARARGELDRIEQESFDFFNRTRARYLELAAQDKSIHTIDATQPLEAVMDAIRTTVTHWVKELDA

## Cc1cn([C@H]2C[C@H](O)[C@@H](COP(=O)(O)OP(=O)(O)OP(=O)(O)OP(=O)(O)OP(=O)(O)OC[C@H]3O[C@@H](n4cnc5c(N)ncnc54)[C@H](O)[C@@H]3O)O2)c(=O)[nH]c1=O [AP5T]
  Kd: 20 nM
